Values quoted from earlier work, collected in patent US11737994B2, “Topical compositions for pain relief, manufacture and use” (priority 2014, dated 2023).

Conditions: in words

For `CCCCCCCCC(=O)NCc1ccc(O)c(OC)c1` [Nonivamide, vanillylamide of n-nonanoic acid], the Heat stability is listed as “more heat-stable than capsaicin”.
